# Source: the SangsterLogP compilation
row,SMILES,logP
1,CC(=O)NC1CCC(CCN2CCN(c3cccc(Cl)c3Cl)CC2)CC1 (stereo not given),4.18
2,CS(=O)(=O)N[C@H]1CC[C@H](CCN2CCN(c3cccc(Cl)c3Cl)CC2)CC1,4.03
3,O=C(Nc1ccc2[nH]c(=O)oc2c1)C(=O)N1CCC(Cc2ccccc2)CC1,3.78
4,CCC(O)NC1CCC(CCN2CCN(c3cccc(Cl)c3Cl)CC2)CC1 (stereo not given),4.29
5,O=C(NCCCCN1CCC(Nc2cccc(C(F)(F)F)c2)CC1)c1ccc(Br)cc1,3.76
6,O=C(CNc1ccc2[nH]c(=O)[nH]c2c1)N1CCC(Cc2ccc(F)cc2)CC1,3.21
7,N#Cc1cc(N2CCN(CCCCNC(=O)c3cnc4ccccc4c3)CC2)cc(C(F)(F)F)c1,4.55
8,N#Cc1cc(N2CCN(CCCCNC(=O)C=Cc3cccnc3)CC2)cc(C(F)(F)F)c1,3.62
9,O=C(NCCCCN1CCC(Oc2cccc(C(F)(F)F)c2)CC1)c1ccnc2ccccc12,4.22
10,O=C(NCCCCN1CCC(c2cccc(C(F)(F)F)c2)CC1)c1ccc(Br)cc1,4.28
